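How tested: cells in 96-well plates exposed to compound for 48 hours at five concentrations. TGI marks complete inhibition of growth.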
What was measured:
Assay in all cases: NCI anticancer screen, dose series, 48 h
IGROV1 ovarian = system: IGROV1 ovarian
OVCAR-4 ovarian = system: OVCAR-4 ovarian
HCT-15 colon = system: HCT-15 colon
DU-145 prostate = system: DU-145 prostate
SW-620 colon = system: SW-620 colon
COLO 205 colon = system: COLO 205 colon
SK-MEL-2 melanoma = system: SK-MEL-2 melanoma
U251 CNS = system: U251 CNS
NCI-H23 lung = system: NCI-H23 lung
MOLT-4 leukemia = system: MOLT-4 leukemia
SF-539 CNS = system: SF-539 CNS
A549 NSCLC = system: A549 NSCLC
HT29 colon = system: HT29 colon
HL-60(TB) leukemia = system: HL-60(TB) leukemia
T-47D breast = system: T-47D breast
HCT-116 colon = system: HCT-116 colon
A498 renal = system: A498 renal
M14 melanoma = system: M14 melanoma
HOP-92 NSCLC = system: HOP-92 NSCLC
KM12 colon = system: KM12 colon
K-562 leukemia = system: K-562 leukemia
MDA-MB-435 = system: MDA-MB-435
PC-3 prostate = system: PC-3 prostate
BT-549 breast = system: BT-549 breast
OVCAR-3 ovarian = system: OVCAR-3 ovarian
NCI-H226 lung = system: NCI-H226 lung
NCI-H522 lung = system: NCI-H522 lung
SF-268 CNS = system: SF-268 CNS
SK-MEL-5 melanoma = system: SK-MEL-5 melanoma
EKVX NSCLC = system: EKVX NSCLC
TK-10 renal = system: TK-10 renal
RXF 393 renal = system: RXF 393 renal
SK-OV-3 ovarian = system: SK-OV-3 ovarian
OVCAR-5 ovarian = system: OVCAR-5 ovarian
ACHN renal = system: ACHN renal
HOP-62 NSCLC = system: HOP-62 NSCLC
LOX IMVI melanoma = system: LOX IMVI melanoma
NCI/ADR-RES ovarian = system: NCI/ADR-RES ovarian
RPMI-8226 leukemia = system: RPMI-8226 leukemia
MALME-3M melanoma = system: MALME-3M melanoma
786-0 renal = system: 786-0 renal
UACC-62 melanoma = system: UACC-62 melanoma
SF-295 CNS = system: SF-295 CNS
CCRF-CEM leukemia = system: CCRF-CEM leukemia
UO-31 renal = system: UO-31 renal
NCI-H460 lung = system: NCI-H460 lung
MDA-N = system: MDA-N
MDA-MB-231 breast = system: MDA-MB-231 breast
SR leukemia = system: SR leukemia
OVCAR-8 ovarian = system: OVCAR-8 ovarian
SK-MEL-28 melanoma = system: SK-MEL-28 melanoma
HS 578T breast = system: HS 578T breast
SNB-19 CNS = system: SNB-19 CNS
SN12C renal = system: SN12C renal
CAKI-1 renal = system: CAKI-1 renal
UACC-257 melanoma = system: UACC-257 melanoma

C[C@H](NC1=CC(=O)C(N[C@@H](C)[C@H](O)c2ccccc2)=CC1=O)[C@H](O)c1ccccc1
TGI (IGROV1 ovarian): > 100 µM | TGI (OVCAR-4 ovarian): > 100 µM | TGI (HCT-15 colon): > 100 µM | TGI (DU-145 prostate): > 100 µM | TGI (SW-620 colon): > 100 µM | TGI (COLO 205 colon): > 100 µM | TGI (SK-MEL-2 melanoma): > 100 µM | TGI (U251 CNS): > 100 µM | TGI (NCI-H23 lung): > 100 µM | TGI (MOLT-4 leukemia): > 100 µM | TGI (SF-539 CNS): > 100 µM | TGI (A549 NSCLC): > 100 µM | TGI (HT29 colon): 63.7 µM | TGI (HL-60(TB) leukemia): > 100 µM | TGI (T-47D breast): > 100 µM | TGI (HCT-116 colon): > 100 µM | TGI (A498 renal): > 100 µM | TGI (M14 melanoma): > 100 µM | TGI (HOP-92 NSCLC): > 100 µM | TGI (KM12 colon): > 100 µM | TGI (K-562 leukemia): > 100 µM | TGI (MDA-MB-435): > 100 µM | TGI (PC-3 prostate): > 100 µM | TGI (BT-549 breast): > 100 µM | TGI (OVCAR-3 ovarian): > 100 µM | TGI (NCI-H226 lung): > 100 µM | TGI (NCI-H522 lung): > 100 µM | TGI (SF-268 CNS): > 100 µM | TGI (SK-MEL-5 melanoma): > 100 µM | TGI (EKVX NSCLC): > 100 µM | TGI (TK-10 renal): > 100 µM | TGI (RXF 393 renal): > 100 µM | TGI (SK-OV-3 ovarian): > 100 µM | TGI (OVCAR-5 ovarian): > 100 µM | TGI (ACHN renal): > 100 µM | TGI (HOP-62 NSCLC): > 100 µM | TGI (LOX IMVI melanoma): > 100 µM | TGI (NCI/ADR-RES ovarian): > 100 µM | TGI (RPMI-8226 leukemia): > 100 µM | TGI (MALME-3M melanoma): > 100 µM | TGI (786-0 renal): > 100 µM | TGI (UACC-62 melanoma): > 100 µM | TGI (SF-295 CNS): > 100 µM | TGI (CCRF-CEM leukemia): > 100 µM | TGI (UO-31 renal): > 100 µM | TGI (NCI-H460 lung): > 100 µM | TGI (MDA-N): > 100 µM | TGI (MDA-MB-231 breast): > 100 µM | TGI (SR leukemia): > 100 µM | TGI (OVCAR-8 ovarian): > 100 µM | TGI (SK-MEL-28 melanoma): > 100 µM | TGI (HS 578T breast): > 100 µM | TGI (SNB-19 CNS): > 100 µM | TGI (SN12C renal): > 100 µM | TGI (CAKI-1 renal): > 100 µM | TGI (UACC-257 melanoma): > 100 µM

From PubChem BioAssay (NCI)
